Structures are written as SMILES. Where only a bound is given, the exact number is not on record here.

The values below come from a melting point compilation (Tetko et al.; mined from patent text by program, amines drawn as free bases though some values may be those of a salt).

In the case of `CCCCCCCCCCCCCCCCCC(=O)N1CCCCc2nc(-c3ccccc3)sc21`, the melting point lay within 38 to 40 °C.
`COC1OC(CO)C(O)C(OC(C)=O)C1Cl` (centres undefined) had a melting point of 105 to 106 °C.
The same measure for `CC(C)CN(C)c1cc2c(cc1C#N)NC(=O)CC(c1cccc(-n3nncc3CN3CCCC3)c1)=N2`: 174 °C; for `COc1ccc([N+](=O)[O-])cc1C(=O)NCc1ccc(C(F)(F)F)cc1`: 108 to 109 °C.
The compound `CCCc1c[nH]c(-c2ccnc(NC(=O)c3ccccc3)c2)n1` gave a melting point of 95 to 97 °C.
Regarding `COC(=O)CCCc1cc2cc(Cl)ccc2n1S(=O)(=O)c1cccc(C(C)C)c1`, the melting point fell in the range of 94 to 97 °C.
With `Clc1nn(-c2cccnc2)cc1NCC1CC1`, the melting point was 82 to 83 °C.
`N=C(Nc1ccc(Cl)cc1)NC1CCCCC1` showed a melting point of 187 to 190 °C.
As to `O=C(O)Cc1ccc2oc(-c3ccccc3)nc2c1`, the melting point worked out at 175 °C.
For the compound `CC1CCC2(C)C(=CCC3C4CC(Cl)C(=O)C4(C)CCC32)C1` (centres undefined), the melting point was 159 to 165 °C.
With `Cc1c(C(=O)Nc2ccc(N3CCN(C4CCOCC4)CC3)c(C#N)c2)cnn1-c1ccc(F)cc1`, the melting point stood at 240 °C.
Next, `COCOc1cc(OC)cc(C)c1C(=O)c1ccc(OCc2ccccc2)cc1`: 49 to 50 °C; `CCOC(=O)c1c(C)nc2snnc2c1NC(C)C`: 62 to 65 °C; `CCCCCNS(=O)(=O)NC(=O)CCc1ccc(OCCOC)cc1Oc1ncc(C(F)(F)F)cc1Cl`: 153 to 154 °C.
For `CC(C)n1nc(-c2c(-c3ccccc3)nn3ccc(OCC(=O)OCc4ccccc4)cc23)ccc1=O`, the melting point amounted to 174 °C.
On to `CCOC(=O)Cc1c(C(=O)OCC)c(C)c(C(=O)c2ccc(Cl)cc2)n1C`, for which the melting point lay within 91 to 93 °C.
Consider `CCCCCCCCc1ccc(-c2ncc(OCC(C)OC(=O)CCCCCC)cn2)cc1` (centres undefined), for which the melting point lay in the range of 33 to 34.3 °C.
Next, `NC1=Nc2ccc(I)cc2C(c2ccccc2F)=NC1`: 219 to 221 °C; `O=C1c2ccccc2C(=O)N1OC/C=C/Cc1ccccc1`: 70 to 71 °C.
`NC(=O)C1CCc2c([nH]c3ccc(Cl)cc23)C1` (centres undefined) showed a melting point of 203 to 204 °C.
Take `Cc1cc(-c2cnn3c(C(F)(F)F)cc(-c4ccc(Cl)c(C)c4)nc23)ccn1`: the melting point is 240 °C.
In turn, `COc1ccc2c(c1)c1c(n2C)C(=O)NCCO1` returned a melting point of 184 to 186 °C.
Regarding `O=C(CCc1ccccc1)N[C@H]1COC1=O`, the melting point was in the range of 104 to 106 °C.
The same measure for `CCOC(=O)C(=CNc1cc(C)no1)C(=O)OCC`: 134 to 136 °C; for `O=C(c1ccoc1)N1CCC(O)(C#Cc2cccc(Cl)c2)CC1`: 93 to 94 °C.
Take `COc1ccc2oc(Cc3ccccc3OC)c(CC#N)c2c1`: the melting point worked out at 122 °C.
`CCOC(=O)c1ccc(-c2cnc3c(c2)N(C(=O)c2ccccc2)CCN3)cc1` registered a melting point of 177 to 178 °C.
On to `CC1(CC(=O)O)OCCc2c1[nH]c1ccccc21` (centres undefined), for which the melting point lay in the range of 87 to 90 °C.
Next, `CCN(CC)C(=O)c1ccc(C(=O)N2CCN(c3ncccc3NC(C)C)CC2)nc1`: 100 to 102 °C.
Regarding `COc1ccc(C2CCC(c3ccc4ccccc4c3)O2)cc1OC` (centres undefined), the melting point is 74 to 77 °C.
In turn, `O=C1NC(=O)C(Nc2ccc(Cl)c3ccccc23)S1` (centres undefined) came in with a melting point of 205 to 206 °C.
Compound `O=S(=O)(CCN1CCCCC1)Nc1cc(C(c2cc(F)ccc2F)S(=O)(=O)c2ccc(Cl)cc2)c(Cl)cn1` (centres undefined) yielded a melting point of 200 to 203 °C.
`Cc1ccccc1C(=O)NC(=O)NC1CN2CCC1CC2` (centres undefined) showed a melting point of 216 to 217 °C.
Turning to `NS(=O)(=O)c1cccc(-c2noc(-c3cnn4c(C(F)(F)F)cc(-c5cccc(C(F)(F)F)c5)nc34)n2)c1`, the melting point was determined as 251 °C.
The compound `O=C(O)c1cc(Cl)cc([N+](=O)[O-])c1NCc1ccccc1Cl` displayed a melting point of 160 to 161 °C.
`CCCCC(=O)Cc1ccc(C(=O)Nc2ccc3cc(CN4CCCC4)cnc3c2C)cc1`: the melting point worked out at 156 °C.
In turn, `COc1ccccc1-c1nc(N)ncc1-c1ccc(=O)n(C)n1` showed a melting point of 225 °C.
Consider `O=C(CC1CCCCC1=O)c1ccccc1` (centres undefined), for which the melting point lay within 44 to 45 °C.
The same measure for `O=C1c2ccccc2C(=O)N1CC1=Nc2ccccc2N(Cc2ccccc2)C(=O)C1`: 186 °C; for `O=C(NCc1ccc(Cl)cc1)c1noc2ccc(C#CCO)cc2c1=O`: 117 to 120 °C.
`C=CCOc1ccc(C=CC(=O)c2c(OC)cc(OC)cc2OC(=O)CC)cc1`: the melting point stood at 83.5 °C.
For the compound `Cc1cccc(N2CCN(CCc3ccc(NC(=O)NCCCCl)cc3)CC2)c1`, the melting point worked out at 168 °C.
Regarding `CC(C)(C)OC(=O)NC[C@H]1CC[C@H](CCO)CC1`, the melting point was 78 to 80 °C.
Compound `COC(=O)c1ccc(Cn2c(C)nc3ccccc32)cc1` yielded a melting point of 100 to 101 °C.
For `COc1cc(F)cc2c1-c1c(F)cc(F)cc1C2=O`, the melting point was in the range of 164 to 166 °C.
The compound `CC(O)=C(C#N)C(=O)Nc1ccc(C(F)(F)F)cc1` showed a melting point of 230 to 233 °C.
As to `C/C(NCC(C)C)=C(\C#N)C(N)=S`, the melting point lay within 165 to 167 °C.
In turn, `CCOC(=O)/C=C/c1c(-c2ccccc2)c2c3ccccc3ccn2c1C(C)C` yielded a melting point of 145 to 146 °C.
Compound `CC(=O)Nc1ccc(S(=O)(=O)C/C=C2/CN3C(=O)C[C@H]3O2)cc1` gave a melting point of 110 to 111 °C.
In turn, `N#Cc1ccc(-c2cn(-c3ccc(C#N)cc3)c(SCc3ccccc3)n2)cc1` displayed a melting point of 168 to 172 °C.
Turning to `CCOP(=O)(CNC(=O)OC(C)(C)C)CNC(=O)OC(C)(C)C`, the melting point lay within 118 to 120 °C.
In turn, `CC(C)(C)OC(=O)N1CCC[C@@H]1C=C(Br)Br` came in with a melting point of 55 to 60 °C.
Compound `O=C(c1ccccc1)c1cccnc1-c1nc(Nc2ccc(Cl)cc2)c2ccccc2n1` yielded a melting point of 190 to 192 °C.
The compound `CS(=O)(=O)c1ccc(-n2nc(C(F)(F)F)cc2-c2ccc(-n3ccnc3)cc2)cc1` gave a melting point of 183 to 184 °C.
The same measure for `OCc1cc2c(F)ccc(Cl)c2s1`: 63 to 64 °C.
Compound `CCOC(=O)CCCN(C(=O)CCCN(C(=O)c1ccc(Cl)cc1)c1c(C)cccc1C)c1c(C)cccc1C` gave a melting point of 95 to 97 °C.
The same measure for `Cc1oc(-c2ccco2)nc1COc1cc(CCl)ccn1`: 107 to 108 °C; for `CSC(=S)N/N=C/c1ccc(-c2ncn(-c3ccc(OC(F)(F)F)cc3)n2)cc1`: 204 to 206 °C; for `CCOC(=O)c1cccc(CNC(=O)CCCCCNC(=O)OC(C)(C)C)c1O`: 120 to 121 °C.
On to `CCNc1cc(-c2c[nH]c(S)n2)ccn1`, for which the melting point is over 260 °C.
In the case of `O=C(c1ccccc1)c1cnc2c(c1)CCC(c1ccc(Cl)c(Cl)c1)O2` (centres undefined), the melting point fell in the range of 155 to 158 °C.
`CCOC(=O)c1c(C)cc2nc(CO)n(-c3ccccc3C)c(=O)c2c1C` displayed a melting point of 130 to 132 °C.
Regarding `COc1ccc(C2CNCc3cc(C)ccc32)cc1OC` (centres undefined), the melting point lay within 129 to 131 °C.
In turn, `CSCc1c(N)c(Br)cc(F)c1F` showed a melting point of 60 to 61 °C.
